The values below come from patent US20250255857A1, “METHODS OF TREATING ANDROGEN RECEPTOR-INDEPENDENT PROSTATE CANCER” (FOGHORN THERAPEUTICS INC., priority 2022, published 2025).

The test system of assay [1] is LNCaP prostate xenograft tumors. Briefly: LNCaP prostate xenograft tumor model, tumor growth inhibition. The class given is in vivo, mice. On the procedure: (§1) Procedure: The experimental details of the studies, including tumor model, mouse strain, cell number implanted, vehicle used, days of treatment, treatment details, and average tumor size at start of dosing are outlined in Table 1. All study mice were purchased from Beijing Anikeeper Biotech and Matrigel was utilized as a basement membrane for all xenograft models. All xenografts were engrafted subcutaneously in the right flank region. The vehicles and Compound 1 (3 mg/kg) were administered twice weekly (BIW) intraperitoneally and enzalutamide (30 mg/kg) was administered orally once daily (QD), when applicable. Tumor volumes and body weights were measured over the course of study, and doses were adjusted by body weight to achieve the proper dose in terms of mg/kg.

For assay [2], the system named is VCaP prostate xenograft tumors. Briefly: VCaP prostate xenograft tumor model (Example 1), tumor growth inhibition. The class given is in vivo, mice. As to conditions: VCaP CDX model, AR V7+; 30 mg/kg QD oral. On the procedure: as §1
Assay [3] concerns C42B prostate xenograft tumors. Briefly: C42B prostate xenograft tumor model, tumor growth inhibition. The class given is in vivo, mice. Conditions: C42B CDX model, AR+; 30 mg/kg QD oral. As to the method: as §1
Assay [4] relates to 22Rv1 prostate xenograft tumors. Briefly: 22Rv1 prostate xenograft tumor model, tumor growth inhibition. The class given is in vivo, mice. On the procedure:
as §1

In assay [5] the test system is VCAP human prostate cancer tumor cells. Put plainly: VCaP CRPC CDX model in castrated mice (Example 6), tumor growth inhibition and tolerability. The class given is in vivo. Conditions: castrated mice. On the procedure: Procedure: The experimental details of the studies, including tumor model, mouse strain, cell number implanted, vehicle used, days of treatment, treatment details, and average tumor size at start of dosing are outlined in Table 7. All study mice were obtained and the studies were conducted at Pharmaron. Each mouse was inoculated subcutaneously on the right flank with the single cell suspension of VCAP human prostate cancer tumor cells (1×10^7) in 0.1 mL with Matrigel (1:1) in DMEM medium with 10% FBS for tumor development. The mice were castrated by removing the testes via a scrotal approach when the tumor volume reached 270 mm^3. After castration, the tumor volume decreased. Treatment started when the mean tumor volume grew back 265 mm^3. Based on tumor volume, mice were randomly assigned to respective groups using a computer-generated randomization procedure and treated according to the study design in Table 8.

Where [6] appears, read: VCAP CRPC model, Enzalutamide at 30 mg/kg PO QD, 25 days.
Where [7] appears, read: VCAP CRPC model, Enzalutamide at 30 mg/kg PO QD, 25 days, Day 57.

Usually TGI stands for the reduction of tumour growth relative to the control group. Read a high TGI as a stronger effect on the tumour. In general, T/C refers to the ratio of treated to control. On to `CNC(=O)c1ccc(N2C(=S)N(c3ccc(C#N)c(C(F)(F)F)c3)C(=O)C2(C)C)cc1F` [enzalutamide, reference compound], for which the “TGI with Enzalutamide 30 mg/kg” value in assay [1] (LNCaP CDX model, AR+, 30 mg/kg QD oral) came out at 92.1%; in assay [2], 46.8%; in assay [3] it was 68.5%; in assay [4] (22RV1 CDX model, AR V7+, 30 mg/kg QD oral) it was 40.3%. In assay [1] (LNCaP xenograft, Compound 1 3 mg/kg BIW IP, enzalutamide 30 mg/kg QD oral), the “tumor growth inhibition (TGI), in words” value is given as “did lead to tumor growth inhibition”. Moreover, the TGI in assay [4] (22Rv1 CDX model, Compound 1 3 mg/kg BIW IP, enzalutamide 30 mg/kg QD oral) is 40.3%; in assay [5] (setting [7]) it was 23.3%; in assay [5] (VCaP CRPC model, Compound 1 10 mg/kg, enzalutamide 30 mg/kg, day 57 after tumor inoculation), 23.3%. Moreover, the “Tumor Growth % on Day 57” value in assay [5] (setting [6]) was determined as 238 ± 9%. Moreover, the “Tumor Size on Day 57” value in assay [5] (setting [6]) is 626 ± 28 mm3. Further, in assay [5] (setting [7]), the T/C is recorded as 76.7%.
